According to US20100041089A1, “IMPROVED METHOD FOR DETECTING CHEMICAL […]” (priority 2006, published 2010):

Tested on: yeast genes (expressed mRNA)
Experiment: DNA chip measurement of expressed mRNA of yeast genes after culture with a toxic chemical substance
Format: cell-based, Saccharomyces cerevisiae S288C
Method: Yeast (Saccharomyces cerevisiae S288C (a SUC2mal mel gap2 CUP1)) were cultured at 25° C. on YPD medium (yeast extract 1%, polypeptone 2%, glucose 2%). One of toxic chemical substances was added to the cell at logarithmic growth phase, and the cell was further cultured for two hours. Cell was cultured without any chemical substance in the same condition, and was used as a control. Concentrations of the chemical substances were defined to inhibit the growth of the yeast but not lead to death.
After the completion of cultivation, the culture was centrifuged to collect the cells. To the cells, sodium acetate buffer (50 mM sodium acetate, 10 mM EDTA, 1% SDS) was added, and the mixture was shaken at 65° C. for five minutes, followed by returning to room temperature, and obtaining the supernatant, which procedure was repeated two times. To the supernatant, ½ amount of a solution of phenol/chloroform (1:1) was added, and the mixture was centrifuged to give a supernatant, an equal amount of chloroform was added, and the mixture was centrifuged to give a supernatant. To the supernatant, an equal amount of isopropanol containing 0.3 M sodium acetate was added, and the mixture was allowed to stand at room temperature for 30 minutes, after which the mixture was centrifuged to give sediment of the whole RNAs. Seventy % ethanol was added to the sediment, and the mixture was again centrifuged to give sediment, which was then dried and dissolved in water. mRNA was isolated from the whole RNAs as followings. In view of the fact that a poly A chain is attached to the 3′ terminus of mRNA, a polynucleotide having a poly T structure which was immobilized on the surface of latex beads was used to trap the mRNA, and then the mRNA was washed and eluted with spine column (Oligotex-dT30<Super>mRNA Purification Kit, Takara). Reverse transcription of the mRNA was conducted with a reverse transcriptase (Super Script II Reverse Transcriptase; catalogue No. 18064-014, GibcoBRL) using fluorescence-labeled nucleotides to give cDNAs that were introduced with Cy3-dUTP or Cy5-dUTP during the reverse transcription.
The labeled cDNAs were dissolved in TE buffer (10 mM Tris-HCl/1 mM EDTA, pH 8.0), and the solution was dropped on the DNA chip containing the whole genes of yeast (DNA Chip Research Inc. Japan) so that the cDNAs were hybridized on the DNA chip at 65° C. for over 12 hours. The fluoresces intensity of the DNA chip was read with a scanner, and the ratio relative to the fluorescence intensity resulting from the absence of chemical substance was estimated as the following, which is shown in Tables 1 to 9.
In the Tables, “Intensity” indicated in the rightmost column is a value of the level of expressed mRNA of each gene in control cells as divided by the average level of the expressions of the whole genes. A gene of which mRNA level is lower in control, and is higher in cases of addition of chemical substance, is especially useful in the detection of toxic substances.
Here, when a ratio of an amount of mRNA expressed in the presence of the chemical substance to an amount of mRNA expressed in the absence of the chemical substance is two or more, then it is considered significant.

`N#Cc1c(Cl)c(Cl)c(Cl)c(C#N)c1Cl` [(9), 2,4,5,6-Tetrachloro-1,3-benzenedicarbonitrile] was tested. Which “The level of expressed mRNA in the presence of chemical substance/The level of expressed mRNA in the absence of chemical substance” value (yeast gene YFL010C, cultured two hours with substance) did it give?
Its value is 3.1.

And the “The level of expressed mRNA in the presence of chemical substance/The level of expressed mRNA in the absence of chemical substance” value (yeast gene YFL014W, DNA repair protein genes, cultured two hours with substance)?
The value was 13.1.

What about the “The level of expressed mRNA in the presence of chemical substance/The level of expressed mRNA in the absence of chemical substance” value (yeast gene YFL024C, cultured two hours with substance) of the same compound?
The value was 0.5.

And the “The level of expressed mRNA in the presence of chemical substance/The level of expressed mRNA in the absence of chemical substance” value (yeast gene YFL030W, metabolism protein genes)?
Its value is 24.5.

What about the “The level of expressed mRNA in the presence of chemical substance/The level of expressed mRNA in the absence of chemical substance” value (yeast gene YFL032W, cultured two hours with substance) of the same compound?
The value was 0.5.

What about the “The level of expressed mRNA in the presence of chemical substance/The level of expressed mRNA in the absence of chemical substance” value (yeast gene YFL056C) of the same compound?
Its value is 162.3.

What about the “The level of expressed mRNA in the presence of chemical substance/The level of expressed mRNA in the absence of chemical substance” value (yeast gene YFL056C, cultured for two hours with substance) of the same compound?
Its value is 162.3.

And the “The level of expressed mRNA in the presence of chemical substance/The level of expressed mRNA in the absence of chemical substance” value (yeast gene YFL057C)?
Its value is 51.8.

What about the “The level of expressed mRNA in the presence of chemical substance/The level of expressed mRNA in the absence of chemical substance” value (yeast gene YFL057C, cultured for two hours with substance) of the same compound?
The value was 51.8.

And the “The level of expressed mRNA in the presence of chemical substance/The level of expressed mRNA in the absence of chemical substance” value (yeast gene YFR020W, cultured two hours with substance)?
The value was 3.7.

What about the “The level of expressed mRNA in the presence of chemical substance/The level of expressed mRNA in the absence of chemical substance” value (yeast gene YFR030W) of the same compound?
Its value is 24.1.

What about the “The level of expressed mRNA in the presence of chemical substance/The level of expressed mRNA in the absence of chemical substance” value (yeast gene YFR042W, cultured two hours with substance) of the same compound?
The value was 2.8.

What about the “The level of expressed mRNA in the presence of chemical substance/The level of expressed mRNA in the absence of chemical substance” value (yeast gene YGL037C, cultured two hours with substance) of the same compound?
Its value is 2.1.

What about the “The level of expressed mRNA in the presence of chemical substance/The level of expressed mRNA in the absence of chemical substance” value (yeast gene YGL047W, cultured two hours with substance) of the same compound?
Its value is 4.5.

What about the “The level of expressed mRNA in the presence of chemical substance/The level of expressed mRNA in the absence of chemical substance” value (yeast gene YGL053W, cultured two hours with substance) of the same compound?
The value was 3.3.

And the “The level of expressed mRNA in the presence of chemical substance/The level of expressed mRNA in the absence of chemical substance” value (yeast gene YGL091C, DNA repair protein genes, cultured two hours with substance)?
Its value is 10.8.

And the “The level of expressed mRNA in the presence of chemical substance/The level of expressed mRNA in the absence of chemical substance” value (yeast gene YGL098W, cultured two hours with substance)?
The value was 1.2.

What about the “The level of expressed mRNA in the presence of chemical substance/The level of expressed mRNA in the absence of chemical substance” value (yeast gene YGL104C) of the same compound?
Its value is 4.6.

And the “The level of expressed mRNA in the presence of chemical substance/The level of expressed mRNA in the absence of chemical substance” value (yeast gene YGL121C, cultured two hours with substance)?
The value was 7.0.

And the “The level of expressed mRNA in the presence of chemical substance/The level of expressed mRNA in the absence of chemical substance” value (yeast gene YGL136C, cultured two hours with substance)?
The value was 1.3.

And the “The level of expressed mRNA in the presence of chemical substance/The level of expressed mRNA in the absence of chemical substance” value (yeast gene YGL227W, cultured two hours with substance)?
Its value is 2.4.

And the “The level of expressed mRNA in the presence of chemical substance/The level of expressed mRNA in the absence of chemical substance” value (yeast gene YGR010W, cultured two hours with substance)?
Its value is 13.6.

And the “The level of expressed mRNA in the presence of chemical substance/The level of expressed mRNA in the absence of chemical substance” value (yeast gene YGR043C)?
Its value is 10.9.

What about the “The level of expressed mRNA in the presence of chemical substance/The level of expressed mRNA in the absence of chemical substance” value (yeast gene YGR043C, cultured for two hours with substance) of the same compound?
The value was 10.9.

What about the “The level of expressed mRNA in the presence of chemical substance/The level of expressed mRNA in the absence of chemical substance” value (yeast gene YGR101W, cultured two hours with substance) of the same compound?
Its value is 4.0.

What about the “The level of expressed mRNA in the presence of chemical substance/The level of expressed mRNA in the absence of chemical substance” value (yeast gene YGR110W, cultured two hours with substance) of the same compound?
Its value is 6.4.

What about the “The level of expressed mRNA in the presence of chemical substance/The level of expressed mRNA in the absence of chemical substance” value (yeast gene YGR130C, cultured two hours with substance) of the same compound?
Its value is 2.0.

And the “The level of expressed mRNA in the presence of chemical substance/The level of expressed mRNA in the absence of chemical substance” value (yeast gene YGR134W, cultured two hours with substance)?
The value was 2.4.

And the “The level of expressed mRNA in the presence of chemical substance/The level of expressed mRNA in the absence of chemical substance” value (yeast gene YGR142W, cultured two hours with substance)?
Its value is 36.8.

What about the “The level of expressed mRNA in the presence of chemical substance/The level of expressed mRNA in the absence of chemical substance” value (yeast gene YGR146C, cultured two hours with substance) of the same compound?
The value was 0.8.

What about the “The level of expressed mRNA in the presence of chemical substance/The level of expressed mRNA in the absence of chemical substance” value (yeast gene YGR154C, cultured two hours with substance) of the same compound?
Its value is 25.2.

And the “The level of expressed mRNA in the presence of chemical substance/The level of expressed mRNA in the absence of chemical substance” value (yeast gene YGR197C (transport facilitation protein gene))?
The value was 16.7.

What about the “The level of expressed mRNA in the presence of chemical substance/The level of expressed mRNA in the absence of chemical substance” value (yeast gene YGR284C, cultured two hours with substance) of the same compound?
Its value is 4.3.

What about the “The level of expressed mRNA in the presence of chemical substance/The level of expressed mRNA in the absence of chemical substance” value (yeast gene YHR016C, cultured two hours with substance) of the same compound?
Its value is 2.8.

What about the “The level of expressed mRNA in the presence of chemical substance/The level of expressed mRNA in the absence of chemical substance” value (yeast gene YHR029C, cultured two hours with substance) of the same compound?
The value was 13.6.

And the “The level of expressed mRNA in the presence of chemical substance/The level of expressed mRNA in the absence of chemical substance” value (yeast gene YHR138C, cultured two hours with substance)?
Its value is 5.3.

What about the “The level of expressed mRNA in the presence of chemical substance/The level of expressed mRNA in the absence of chemical substance” value (yeast gene YHR199C, cultured two hours with substance) of the same compound?
The value was 8.6.

What about the “The level of expressed mRNA in the presence of chemical substance/The level of expressed mRNA in the absence of chemical substance” value (yeast gene YHR209W, cultured two hours with substance) of the same compound?
The value was 2.9.

What about the “The level of expressed mRNA in the presence of chemical substance/The level of expressed mRNA in the absence of chemical substance” value (yeast gene YIL023C, cultured two hours with substance) of the same compound?
The value was 3.5.

And the “The level of expressed mRNA in the presence of chemical substance/The level of expressed mRNA in the absence of chemical substance” value (yeast gene YIL024C, cultured two hours with substance)?
The value was 2.2.

What about the “The level of expressed mRNA in the presence of chemical substance/The level of expressed mRNA in the absence of chemical substance” value (yeast gene YIL041W, cultured two hours with substance) of the same compound?
The value was 1.8.

And the “The level of expressed mRNA in the presence of chemical substance/The level of expressed mRNA in the absence of chemical substance” value (yeast gene YIL087C, cultured two hours with substance)?
Its value is 2.4.

What about the “The level of expressed mRNA in the presence of chemical substance/The level of expressed mRNA in the absence of chemical substance” value (yeast gene YIL097W, cultured two hours with substance) of the same compound?
Its value is 4.9.

What about the “The level of expressed mRNA in the presence of chemical substance/The level of expressed mRNA in the absence of chemical substance” value (yeast gene YIL117C, cultured two hours with substance) of the same compound?
The value was 2.3.

And the “The level of expressed mRNA in the presence of chemical substance/The level of expressed mRNA in the absence of chemical substance” value (yeast gene YIL143C, DNA repair protein genes, cultured two hours with substance)?
Its value is 7.1.

And the “The level of expressed mRNA in the presence of chemical substance/The level of expressed mRNA in the absence of chemical substance” value (yeast gene YIL153W, DNA repair protein genes, cultured two hours with substance)?
The value was 4.3.

What about the “The level of expressed mRNA in the presence of chemical substance/The level of expressed mRNA in the absence of chemical substance” value (yeast gene YJL020C, cultured two hours with substance) of the same compound?
The value was 1.3.

And the “The level of expressed mRNA in the presence of chemical substance/The level of expressed mRNA in the absence of chemical substance” value (yeast gene YJL057C, cultured two hours with substance)?
The value was 7.3.

And the “The level of expressed mRNA in the presence of chemical substance/The level of expressed mRNA in the absence of chemical substance” value (yeast gene YJL066C, cultured two hours with substance)?
Its value is 2.0.

And the “The level of expressed mRNA in the presence of chemical substance/The level of expressed mRNA in the absence of chemical substance” value (yeast gene YJL082W, cultured two hours with substance)?
The value was 1.4.
